Reference: US20240382558A1, “PHARMACEUTICAL COMPOSITION FOR PREVENTING OR TREATING INTERSTITIAL CYSTITIS/BLADDER PAIN SYNDROME” (priority 2022, published 2024)

Columns and labels:
IC/BPS model rats [1] = assay: Cystometry (intravesical pressure and urination volume) in HCl-induced IC/BPS model rats; type: in vivo, rat
Procedure: Through the catheter, 250 μL of saline (Sham group) or 250 μL of 0.1 M HCl (IC group) was instilled into the bladder and held for 1 minute, and then the bladder was washed twice with saline. The Sham and IC groups were each divided into two groups (n=7-8/group), and 200 μL of saline or 200 μL of RGDS peptide solution (500 mg/L saline solution, MedChemExpress) was administered intraperitoneally. On day 7 after administration, a polyethylene catheter was inserted and retained in the apex of the bladder, and a pressure transducer (MLT0699, ADInstruments Ltd, Dunedin, New Zealand), PowerLab 4/26 (ADInstruments Ltd, Dunedin New Zealand) were connected. A syringe pump (YSP-101, YMC Co., Ltd., Kyoto, Japan) was connected to the pressure transducer to measure intravesical pressure and urination volume while continuously instilling 40 μL/min saline solution into the bladder. The pressure at the urination event peak on the cystometrogram was defined as the maximum intravesical pressure, the peak interval as the urination interval, the pressure immediately after the peak as the basal intravesical pressure, the pressure immediately before the peak as the threshold pressure for urination, and the urination volume at the peak as urine volume per urination event.
A similar study to Example 1 was conducted, except that the RGDS peptide used in Example 1 was replaced with 400 μL of cilengitide solution (6.75 g/L saline solution, Tokyo Kasei). In the cilengitide-administered group, the urination interval was prolonged compared to the group that received instillation of saline (FIG. 3), confirming that frequent urination was ameliorated.

IC/BPS model rats [2] = assay: Pain threshold by electronic von Frey filament on lower abdomen in IC/BPS model rats; type: in vivo, rat; conditions: IC+R group vs IC group; day 5 after administration; average of three measurements; FIG. 4
Procedure: Sham, IC, and IC+R groups were prepared as in Example 1. On day 5 after administration, the rats were placed in a metabolic cage with a wire mesh bottom and allowed to acclimate for 10 minutes, and the lower abdomen was stimulated with increasing pressure using an electronic von Frey filament (BIO-EVF, Bioseb, Vitrolles, France). The pressure at which an escape response was observed was measured as the pain threshold. This measurement was repeated three times with a 5-minute interval, and the average was calculated. The pain threshold increased in the IC+R group compared to the IC group (FIG. 4), confirming an ameliorating trend of pain.

[3] = among Sham, Sham+R, IC, IC+R groups, 200 μL RGDS peptide solution (500 mg/L) intraperitoneally, day 7

Compound	urination interval (IC/BPS model rats [1]; cilengitide-administered IC group vs saline group, 400 μL cilengitide solution (6.75 g/L saline), FIG. 3)	urination interval (IC/BPS model rats [1]; IC+R group vs IC group given saline, 200 μL RGDS peptide solution (500 mg/L saline) intraperitoneally, day 7 after administration, FIGS. 1 and 2)	basal intravesical pressure (IC/BPS model rats [1]; [3])	maximum intravesical pressure (IC/BPS model rats [1]; [3])	threshold pressure for urination (IC/BPS model rats [1]; [3])	pain threshold (pressure at which an escape response was observed) (IC/BPS model rats [2])
CC(C)[C@H]1C(=O)N[C@@H](CCCN=C(N)N)C(=O)NCC(=O)N[C@@H](CC(=O)O)C(=O)N[C@H](Cc2ccccc2)C(=O)N1C [cilengitide]	prolonged	–	–	–	–	–
RGDS [RGDS peptide]	–	significantly prolonged	did not differ among all groups	did not differ among all groups	did not differ among all groups	increased
